The source of these data is patent US8772480B2, “Inhibitors of PI3 kinase and/or mTOR” (priority 2009, dated 2014).

The target in test [1] is PI3Kα (Homo sapiens (Human), UniProt P42336). As to conditions: read-out: PI3Kα AlphaScreen ® Ki. (Bead proximity is the source of the signal in Alpha formats.)
Test [2] has as its system phosphorylation of Akt at Serine 473 in U87 MG cells. The experiment in a line: cells. Conditions: Homo sapiens, U-87 MG, 2 h, read-out: U87Cell IC50, pAkt (Ser 473), U87 MG cells, two hours with compound.

Sequence of PI3Kα (P42336 whole entry): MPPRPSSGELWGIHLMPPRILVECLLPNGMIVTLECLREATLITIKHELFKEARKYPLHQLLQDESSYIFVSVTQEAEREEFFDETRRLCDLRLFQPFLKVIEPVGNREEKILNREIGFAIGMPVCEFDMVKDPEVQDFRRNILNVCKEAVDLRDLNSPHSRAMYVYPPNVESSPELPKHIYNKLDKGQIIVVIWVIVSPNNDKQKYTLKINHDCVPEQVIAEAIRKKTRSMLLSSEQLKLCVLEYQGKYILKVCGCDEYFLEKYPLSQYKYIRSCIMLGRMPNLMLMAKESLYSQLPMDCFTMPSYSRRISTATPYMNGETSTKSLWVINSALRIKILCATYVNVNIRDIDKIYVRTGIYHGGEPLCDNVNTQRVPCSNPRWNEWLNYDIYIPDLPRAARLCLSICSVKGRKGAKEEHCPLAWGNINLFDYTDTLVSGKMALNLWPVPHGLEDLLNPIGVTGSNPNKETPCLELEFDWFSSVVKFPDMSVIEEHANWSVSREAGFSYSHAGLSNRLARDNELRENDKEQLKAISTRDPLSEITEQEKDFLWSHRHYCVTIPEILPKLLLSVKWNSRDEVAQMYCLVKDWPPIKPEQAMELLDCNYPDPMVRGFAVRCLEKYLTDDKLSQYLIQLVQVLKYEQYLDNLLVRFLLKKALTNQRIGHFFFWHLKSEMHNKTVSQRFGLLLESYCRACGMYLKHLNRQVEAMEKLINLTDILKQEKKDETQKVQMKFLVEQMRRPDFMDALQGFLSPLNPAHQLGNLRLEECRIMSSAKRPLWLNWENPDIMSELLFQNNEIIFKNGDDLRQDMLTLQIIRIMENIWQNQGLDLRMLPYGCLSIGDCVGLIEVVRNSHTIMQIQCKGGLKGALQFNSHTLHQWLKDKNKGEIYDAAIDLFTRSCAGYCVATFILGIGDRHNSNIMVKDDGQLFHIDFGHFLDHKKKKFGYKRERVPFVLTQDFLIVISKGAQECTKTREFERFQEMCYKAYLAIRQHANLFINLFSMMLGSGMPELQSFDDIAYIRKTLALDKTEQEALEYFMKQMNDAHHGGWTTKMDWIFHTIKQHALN
Sequence of PI3Kα (P27986 whole entry partner): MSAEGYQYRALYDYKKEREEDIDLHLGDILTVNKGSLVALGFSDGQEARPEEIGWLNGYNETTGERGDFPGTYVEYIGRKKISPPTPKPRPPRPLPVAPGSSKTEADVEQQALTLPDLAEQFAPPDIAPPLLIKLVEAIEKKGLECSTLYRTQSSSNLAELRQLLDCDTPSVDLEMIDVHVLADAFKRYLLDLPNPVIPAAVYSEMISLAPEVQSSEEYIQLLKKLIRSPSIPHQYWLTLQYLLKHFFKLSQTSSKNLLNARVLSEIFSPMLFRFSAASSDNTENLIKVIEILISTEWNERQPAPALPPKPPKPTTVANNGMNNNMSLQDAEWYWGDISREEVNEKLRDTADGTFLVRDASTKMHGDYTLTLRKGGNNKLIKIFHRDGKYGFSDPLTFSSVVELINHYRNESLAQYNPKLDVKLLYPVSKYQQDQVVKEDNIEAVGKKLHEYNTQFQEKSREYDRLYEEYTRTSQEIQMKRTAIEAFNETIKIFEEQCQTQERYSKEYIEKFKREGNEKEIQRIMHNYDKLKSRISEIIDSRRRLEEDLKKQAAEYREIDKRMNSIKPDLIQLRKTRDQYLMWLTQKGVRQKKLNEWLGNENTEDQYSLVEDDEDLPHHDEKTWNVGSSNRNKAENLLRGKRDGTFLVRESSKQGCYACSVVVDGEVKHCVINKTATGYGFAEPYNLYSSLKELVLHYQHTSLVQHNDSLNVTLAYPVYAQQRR

As usually defined, the Ki is a measure of affinity in units of concentration, obtained from inhibition or displacement. The term IC50 denotes the concentration needed to halve the response being measured. Consider `COCCOc1cnc(Nc2cnc(OC)c(NS(C)(=O)=O)c2)c(-c2nc(C)nc(N)n2)c1` [Example 336, N-(5-(3-(4-Amino-6-Methyl-1,3,5-Triazin-2-yl)-5-(2-Methoxyethoxy)Pyridin-2-Ylamino)-2-Methoxypyridin-3-yl)Methanesulfonamide], for which, in test [1], the inhibition constant Ki was determined as 55 nM. For the same compound, the concentration for half-maximal inhibition (IC50) in test [2] came to 36 nM.

With `COc1ncc(Nc2ncc(CN3CCOCC3)cc2-c2nc(C)nc(N)n2)cc1NS(C)(=O)=O` [Example 337, N-(5-(3-(4-Amino-6-Methyl-1,3,5-Triazin-2-yl)-5-(Morpholinomethyl)Pyridin-2-Ylamino)-2-Methoxypyridin-3-yl)Methanesulfonamide], in test [1], the Ki was 98 nM. Further, the IC50 in test [2] is 21 nM.

Take `Cc1nc(-c2cccnc2Nc2cnc(Cl)c(NS(C)(=O)=O)c2)c2nc[nH]c2n1` [Example 338, N-(2-Chloro-5-(3-(2-Methyl-9H-Purin-6-yl)Pyridin-2-Ylamino)Pyridin-3-yl)Methanesulfonamide]: the Ki in test [1] is 5 nM. Further, the IC50 in test [2] was 46 nM.

For the compound `Cc1nc(-c2cc(C(C)N3CCOCC3)cnc2Nc2cnc(Cl)c(NS(C)(=O)=O)c2)c2nc[nH]c2n1` (stereo not shown) [Example 339, N-(2-Chloro-5-(3-(2-Methyl-9H-Purin-6-yl)-5-(1-Morpholinoethyl)Pyridin-2-Ylamino)Pyridin-3-yl)Methanesulfonamide], the Ki in test [1] turned out to be 3 nM. Besides, the 50% inhibitory concentration (IC50) in test [2] was determined as 45 nM.

Turning to `Cc1nc(-c2cc(C(C)N3CCOCC3)cnc2Nc2cnc(Cl)c(NS(=O)(=O)N(C)C)c2)c2nc[nH]c2n1` (stereo not shown) [Example 340, N′-(2-Chloro-5-((3-(2-Methyl-9H-Purin-6-yl)-5-(1-(4-Morpholinyl)Ethyl)-2-Pyridinyl)Amino)-3-Pyridinyl)-N,N-Dimethylsulfamide], the Ki in test [1] was found to be 4 nM. Besides, in test [2], the 50% inhibitory concentration (IC50) is 14 nM.

For the compound `COc1cc(Nc2ncc([C@@H](C)N3CCN(S(C)(=O)=O)CC3)cc2-c2nc(C)nc(N)n2)cnc1Cl` [Example 341, (R)-4-(2-(6-Chloro-5-Methoxypyridin-3-Ylamino)-5-(1-(4-(Methylsulfonyl)Piperazin-1-yl)Ethyl)Pyridin-3-yl)-6-Methyl-1,3,5-Triazin-2-Amine], the inhibition constant (Ki) in test [1] came out at 19 nM. Also, in test [2], the half-inhibitory concentration (IC50) is 17 nM.

For the compound `COc1cc(Nc2ncc(C(C)(C)O)cc2-c2nc(C)nc(N)n2)cnc1Cl` [Example 342, 2-(5-(4-Amino-6-Methyl-1,3,5-Triazin-2-yl)-6-(6-Chloro-5-Methoxypyridin-3-Ylamino)Pyridin-3-yl)Propan-2-ol], in test [1], the Ki is 25 nM. Moreover, the IC50 in test [2] amounted to 8 nM.

`COc1ncc(Nc2ncc(C3CCOCC3)cc2-c2nc(C)nc(N)n2)cc1F` [Example 344, 4-(2-(5-Fluoro-6-Methoxypyridin-3-Ylamino)-5-(Tetrahydro-2H-Pyran-4-yl)Pyridin-3-yl)-6-Methyl-1,3,5-Triazin-2-Amine]: the inhibition constant (Ki) in test [1] came to 5 nM. In test [2], the IC50 is 14 nM.

Turning to `COc1ncc(Nc2ncc(C(C)(C)O)cc2-c2cc(N)nc(C)n2)cc1F` [Example 345, 2-(5-(6-Amino-2-Methylpyrimidin-4-yl)-6-(5-Fluoro-6-Methoxypyridin-3-Ylamino)Pyridin-3-yl)Propan-2-ol], in test [1], the Ki stood at 13 nM. The 50% inhibitory concentration (IC50) in test [2] is 35 nM.

Consider `COc1ncc(Nc2ncc(C(C)(C)C(=O)O)cc2-c2nc(C)nc(N)n2)cc1F` [Example 346, 2-(5-(4-Amino-6-Methyl-1,3,5-Triazin-2-yl)-6-(5-Fluoro-6-Methoxypyridin-3-Ylamino)Pyridin-3-yl)-2-Methylpropanoic Acid], for which the inhibition constant Ki in test [1] was determined as 377 nM. Also, the 50% inhibitory concentration (IC50) in test [2] is above 10000 nM.

In the case of `COc1ncc(Nc2ncc(C(O)C(C)(C)O)cc2-c2nc(C)nc(N)n2)cc1F` (stereo not shown) [Example 347, 1-(5-(4-Amino-6-Methyl-1,3,5-Triazin-2-yl)-6-(5-Fluoro-6-Methoxypyridin-3-Ylamino)Pyridin-3-yl)-2-Methylpropane-1,2-Diol], the inhibition constant (Ki) in test [1] was found to be 75 nM. Also, the IC50 in test [2] stood at 108 nM.
